This is an account of results in ChEMBL document CHEMBL3132769, “Fragment growing to retain or alter the selectivity of anchored kinase hinge-binding fragments” (Medchemcomm, 2014).

Assay [1] deals with Tyrosine-protein kinase ABL1 (Homo sapiens), P00519 [H396P]. The assay can be described thus: Inhibition of human truncated ABL H396P mutant expressed in baculovirus assessed as substrate phosphorylation using fluorescence-labelled peptides as substrate at 2 uM after 90 mins by microfluidic peptide phosphorylation assay.
For assay [2], the target named is Tyrosine-protein kinase Lyn (Homo sapiens) (UniProt P07948). In words: Inhibition of human full length LYN expressed in baculovirus assessed as substrate phosphorylation using fluorescence-labelled peptides as substrate at 0.06 uM after 90 mins by microfluidic peptide phosphorylation assay.
Sequence of Tyrosine-protein kinase Lyn (Homo sapiens) (P07948 2-512 limits assumed): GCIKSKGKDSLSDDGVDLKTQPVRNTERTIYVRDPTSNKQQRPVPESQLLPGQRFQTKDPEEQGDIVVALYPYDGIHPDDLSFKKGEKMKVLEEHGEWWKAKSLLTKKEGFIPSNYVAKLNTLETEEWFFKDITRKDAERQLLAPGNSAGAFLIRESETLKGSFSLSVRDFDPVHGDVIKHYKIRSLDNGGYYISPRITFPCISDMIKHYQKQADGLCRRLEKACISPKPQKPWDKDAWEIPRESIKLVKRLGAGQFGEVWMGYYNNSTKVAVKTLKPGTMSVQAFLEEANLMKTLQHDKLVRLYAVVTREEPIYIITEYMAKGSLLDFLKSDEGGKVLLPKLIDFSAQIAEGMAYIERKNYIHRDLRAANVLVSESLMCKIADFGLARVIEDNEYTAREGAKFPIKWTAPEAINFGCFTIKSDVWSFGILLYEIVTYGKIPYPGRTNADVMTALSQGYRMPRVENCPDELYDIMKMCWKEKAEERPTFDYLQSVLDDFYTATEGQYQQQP
The target in assay [3] is T1, cGMP-dependent protein kinase 1 (Homo sapiens) (UniProt Q13976).
T1 sequence (whole entry): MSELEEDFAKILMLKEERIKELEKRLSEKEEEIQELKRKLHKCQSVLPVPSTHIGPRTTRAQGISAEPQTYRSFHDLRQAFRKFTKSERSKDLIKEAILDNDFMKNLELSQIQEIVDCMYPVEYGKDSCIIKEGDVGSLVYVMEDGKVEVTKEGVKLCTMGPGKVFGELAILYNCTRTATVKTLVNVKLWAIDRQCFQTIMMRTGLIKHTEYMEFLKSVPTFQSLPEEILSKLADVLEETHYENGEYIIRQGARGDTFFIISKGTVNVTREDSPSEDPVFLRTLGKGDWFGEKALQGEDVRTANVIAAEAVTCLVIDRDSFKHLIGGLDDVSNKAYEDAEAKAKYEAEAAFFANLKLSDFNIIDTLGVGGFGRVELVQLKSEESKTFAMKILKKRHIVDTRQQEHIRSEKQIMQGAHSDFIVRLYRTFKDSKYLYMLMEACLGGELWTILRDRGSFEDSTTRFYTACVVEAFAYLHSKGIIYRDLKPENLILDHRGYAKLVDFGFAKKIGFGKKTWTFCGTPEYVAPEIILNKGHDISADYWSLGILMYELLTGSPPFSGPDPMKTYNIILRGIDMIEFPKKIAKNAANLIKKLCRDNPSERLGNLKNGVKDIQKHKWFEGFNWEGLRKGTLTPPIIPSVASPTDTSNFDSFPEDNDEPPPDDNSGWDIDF
In words: Inhibition of human full length PKG-1a expressed in baculovirus assessed as substrate phosphorylation using fluorescence-labelled peptides as substrate at 9 uM after 90 mins by microfluidic peptide phosphorylation assay.

The target of assay [4] is T2, Protein kinase C zeta type (Homo sapiens) (UniProt Q05513).
T2 sequence (whole entry): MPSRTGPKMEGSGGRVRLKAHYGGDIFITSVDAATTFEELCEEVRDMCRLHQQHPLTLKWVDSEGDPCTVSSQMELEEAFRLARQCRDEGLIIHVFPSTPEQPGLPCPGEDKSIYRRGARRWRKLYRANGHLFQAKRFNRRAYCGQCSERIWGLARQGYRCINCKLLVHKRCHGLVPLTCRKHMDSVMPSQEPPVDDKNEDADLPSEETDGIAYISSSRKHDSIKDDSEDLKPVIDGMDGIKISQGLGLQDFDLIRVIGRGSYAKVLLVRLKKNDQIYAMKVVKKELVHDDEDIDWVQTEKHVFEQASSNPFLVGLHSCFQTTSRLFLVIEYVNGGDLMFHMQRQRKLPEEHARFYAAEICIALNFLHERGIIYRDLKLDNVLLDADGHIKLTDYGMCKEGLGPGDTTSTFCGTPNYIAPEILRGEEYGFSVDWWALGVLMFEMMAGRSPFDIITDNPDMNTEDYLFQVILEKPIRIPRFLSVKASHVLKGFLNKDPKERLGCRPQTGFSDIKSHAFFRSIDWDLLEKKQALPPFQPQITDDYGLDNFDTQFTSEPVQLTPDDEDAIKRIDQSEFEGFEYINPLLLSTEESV
The assay can be described thus: Inhibition of human full length PKC zeta expressed in baculovirus assessed as substrate phosphorylation using fluorescence-labelled peptides as substrate at 9 uM after 90 mins by microfluidic peptide phosphorylation assay.

In assay [5] the test system is T3, Receptor-type tyrosine-protein kinase FLT3 (Homo sapiens), P36888 [D835Y].
T3 sequence (whole entry): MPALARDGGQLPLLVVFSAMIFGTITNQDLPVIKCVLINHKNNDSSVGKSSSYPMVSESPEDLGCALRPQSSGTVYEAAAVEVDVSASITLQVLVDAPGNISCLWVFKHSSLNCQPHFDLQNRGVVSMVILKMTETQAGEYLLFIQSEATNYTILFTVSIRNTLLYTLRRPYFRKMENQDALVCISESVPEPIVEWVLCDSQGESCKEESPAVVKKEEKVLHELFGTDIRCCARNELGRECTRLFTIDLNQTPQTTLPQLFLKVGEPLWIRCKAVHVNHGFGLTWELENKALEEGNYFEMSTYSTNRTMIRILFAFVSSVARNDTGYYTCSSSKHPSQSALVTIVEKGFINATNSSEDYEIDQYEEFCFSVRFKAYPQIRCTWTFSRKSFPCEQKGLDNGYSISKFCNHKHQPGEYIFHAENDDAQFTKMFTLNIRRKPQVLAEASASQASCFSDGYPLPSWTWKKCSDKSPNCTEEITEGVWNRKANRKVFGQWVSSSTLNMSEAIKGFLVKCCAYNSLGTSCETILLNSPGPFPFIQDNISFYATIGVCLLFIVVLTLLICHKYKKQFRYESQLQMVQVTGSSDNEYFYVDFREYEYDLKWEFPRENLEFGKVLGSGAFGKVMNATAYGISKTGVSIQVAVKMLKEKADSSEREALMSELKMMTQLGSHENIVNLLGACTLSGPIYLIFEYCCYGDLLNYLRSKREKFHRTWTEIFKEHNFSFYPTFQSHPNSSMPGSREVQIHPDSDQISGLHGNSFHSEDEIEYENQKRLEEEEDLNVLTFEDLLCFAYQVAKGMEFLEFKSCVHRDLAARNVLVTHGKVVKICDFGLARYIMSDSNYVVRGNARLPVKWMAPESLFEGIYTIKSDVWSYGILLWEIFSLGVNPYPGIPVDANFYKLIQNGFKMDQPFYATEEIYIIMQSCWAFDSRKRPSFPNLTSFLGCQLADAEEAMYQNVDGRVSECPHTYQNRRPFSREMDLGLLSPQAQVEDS
In words: Inhibition of human FLT3 D835Y mutant catalytic domain expressed in baculovirus assessed as substrate phosphorylation using fluorescence-labelled peptides as substrate at 9 uM after 90 mins by microfluidic peptide phosphorylation assay.

Assay [6] has as its target Ribosomal protein S6 kinase alpha-1 (Homo sapiens) (UniProt Q15418). The assay can be described thus: Inhibition of human full length RSK1 expressed in baculovirus assessed as substrate phosphorylation using fluorescence-labelled peptides as substrate at 420 uM after 90 mins by microfluidic peptide phosphorylation assay.
The target of assay [7] is Serine/threonine-protein kinase Chk2 (Homo sapiens) (UniProt O96017). In words: Inhibition of human full length CHK2 expressed in baculovirus assessed as substrate phosphorylation using fluorescence-labelled peptides as substrate at 1000 uM after 90 mins by microfluidic peptide phosphorylation assay.
Sequence of Serine/threonine-protein kinase Chk2 (Homo sapiens) (O96017 whole entry): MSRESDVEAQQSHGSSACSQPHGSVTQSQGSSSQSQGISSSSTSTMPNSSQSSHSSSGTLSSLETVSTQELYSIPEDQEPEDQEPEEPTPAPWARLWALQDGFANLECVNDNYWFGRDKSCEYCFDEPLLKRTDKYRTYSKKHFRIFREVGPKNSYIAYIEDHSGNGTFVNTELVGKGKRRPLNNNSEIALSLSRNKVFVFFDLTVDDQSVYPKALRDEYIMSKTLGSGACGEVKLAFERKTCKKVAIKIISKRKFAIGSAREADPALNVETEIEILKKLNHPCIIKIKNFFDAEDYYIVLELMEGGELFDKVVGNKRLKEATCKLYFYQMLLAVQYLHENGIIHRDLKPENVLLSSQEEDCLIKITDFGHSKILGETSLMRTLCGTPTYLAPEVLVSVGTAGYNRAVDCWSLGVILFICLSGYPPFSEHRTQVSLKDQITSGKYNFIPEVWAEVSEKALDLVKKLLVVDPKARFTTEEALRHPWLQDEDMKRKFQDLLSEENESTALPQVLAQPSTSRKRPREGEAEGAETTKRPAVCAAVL
The target of assay [8] is MAP kinase p38 (Homo sapiens) (UniProt O15264+Q15759+Q16539+P53778). The assay can be described thus: Inhibition of human full length p38 beta2 expressed in Escherichia coli cell assessed as substrate phosphorylation using fluorescence-labelled peptides as substrate at 1000 uM after 90 mins by microfluidic peptide phosphorylation assay.

Sequence of Ribosomal protein S6 kinase alpha-1 (Homo sapiens) (Q15418 whole entry): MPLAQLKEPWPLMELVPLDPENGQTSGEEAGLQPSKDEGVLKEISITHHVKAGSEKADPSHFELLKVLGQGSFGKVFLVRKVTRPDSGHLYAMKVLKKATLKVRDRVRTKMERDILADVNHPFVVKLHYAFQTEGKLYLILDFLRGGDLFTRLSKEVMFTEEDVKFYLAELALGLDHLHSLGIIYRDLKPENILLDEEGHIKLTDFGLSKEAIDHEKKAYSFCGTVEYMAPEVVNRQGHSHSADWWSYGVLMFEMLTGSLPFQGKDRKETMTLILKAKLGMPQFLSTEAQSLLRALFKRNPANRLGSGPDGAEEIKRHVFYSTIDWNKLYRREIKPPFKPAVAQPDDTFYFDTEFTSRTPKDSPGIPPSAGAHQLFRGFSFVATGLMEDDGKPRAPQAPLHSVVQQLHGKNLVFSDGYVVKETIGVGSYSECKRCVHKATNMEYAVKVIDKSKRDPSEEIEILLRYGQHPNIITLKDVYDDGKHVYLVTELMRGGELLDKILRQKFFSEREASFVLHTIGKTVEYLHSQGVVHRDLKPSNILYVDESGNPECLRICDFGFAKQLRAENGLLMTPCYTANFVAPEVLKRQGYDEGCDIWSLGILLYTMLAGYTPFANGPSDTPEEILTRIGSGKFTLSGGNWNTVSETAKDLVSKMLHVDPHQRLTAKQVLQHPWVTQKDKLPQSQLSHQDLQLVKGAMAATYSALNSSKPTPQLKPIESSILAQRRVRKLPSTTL

For orientation: inhibition means the relative decrease from the control value, in per cent. Regarding `NC1CCN(c2ncnc3[nH]ccc23)CC1`, the inhibition in assay [1] stood at 2.5%.
For the molecule `NC1(Cc2ccc(Cl)cc2)CCN(c2ncnc3[nH]ccc23)CC1`, in assay [2], the inhibition worked out at 0%.
In the case of `NCC1CN(c2ncnc3[nH]c4cnccc4c23)CCO1` (stereo not drawn), the inhibition amounted to 15.5% in assay [3], 22% in assay [4] and 95% in assay [5].
`c1nc(N2CCOCC2)c2nc[nH]c2n1`: in assay [6], the inhibition is 87%.
`c1cnc2[nH]ccc2c1`: the inhibition in assay [7] was found to be 74%; in assay [8] it was 0%.
